According to EPA's ToxValDB 9.5:
Where “and” joins values, the source holds several entries; their conditions need not be identical. Equal entries are not always repeated.

Tests used:
Homo sapiens [1] = settings: clinical; oral; M/F; radioactive iodide uptake inhibition (raiu) in the thyroid
Oryctolagus sp. [2] = settings: for NOAEL: duration: 13 days, oral; for LD50: acute, dermal
Rattus norvegicus [3] = settings: for LC50 / LD50: acute
Oryctolagus sp. [4] = tested on: Oryctolagus sp.
Oryctolagus sp. [5] = tested on: Oryctolagus sp.; remark: listed apart in the source
Anas platyrhynchos = settings: oral
Homo sapiens [6] = settings: clinical, oral
Mus musculus [7] = settings: oral, M/F
Mus musculus [8] = settings: oral
Mus musculus [9] = settings: oral, M/F; remark: listed apart in the source
Mus musculus [10] = settings: oral, gavage, M/F
Rattus norvegicus [11] = settings: uterotrophic; duration: 3 days; injection; subcutaneous; Active
Rattus norvegicus [12] = settings: repeat dose other; oral
Gallus sp. = settings: repeat dose other; oral
Oryctolagus sp. [13] = test: LD0; higher = less toxic; settings: acute
Rattus norvegicus [14] = settings: subchronic, oral, gavage
Rattus norvegicus [15] = settings: subchronic; duration: 90 days; inhalation; M/F; Wistar; hepatic
Rattus norvegicus [16] = settings: subchronic; inhalation; M/F; hepatic effects
Mus musculus [17] = settings: repeat dose other; oral
Chrysomus sp. = settings: oral
Rattus norvegicus [18] = settings: subchronic; duration: 90 days; oral; diet; Organs: Increased weight
Mus musculus [19] = settings: chronic; duration: 2 years; inhalation; intermittent; Nasal mucosa: Hyperplasia + Nasal mucosa: Hypertrophy
[20] = developmental, oral, F, maternal (reduced weight gain) and fetal toxicity
[21] = subchronic, inhalation, M/F, functional and histological peripheral neurotoxicity
[22] = subchronic, gavage, clinical signs (lethargy, prostration, and ataxia and hematological changes
[23] = subchronic, nephropathy, increased liver weight, hematological alterations, and clinical effects
[24] = short-term, duration: 28 days, oral, gavage, Sprague-Dawley
[25] = short-term, duration: 4 weeks, oral, diet, Sprague-Dawley
[26] = chronic, duration: 104 weeks, hepatic necrosis

`[O-][Cl+3]([O-])([O-])[O-]` [Perchlorate] gave an LOEL (Homo sapiens [1]) of 0.02 mg/kg-day and an NOEL (Homo sapiens [1]) of 0.007 mg/kg-day.
With `COc1c(Cl)ccc(Cl)c1C(=O)O` [Dicamba] the NOAEL (Oryctolagus sp. [2]; reproduction developmental, F, New Zealand) was ≤ 30 mg/kg-day, the NOAEL (Oryctolagus sp. [2]; reproduction developmental, New Zealand, generation: F1) was ≤ 300 mg/kg-day and the NOAEL (Rattus norvegicus [3]; developmental, duration: 14 days, oral, gavage, Crj:CD) was ≤ 400 mg/kg-day. For the same compound, the NOAEL (Rattus norvegicus [3]; reproduction developmental, duration: 14 days, oral, gavage, F, Crj:CD) was ≤ 160 mg/kg-day, the NOAEL (Oryctolagus sp. [4]; developmental, duration: 12 days, oral, gavage, Dam: Decreased weight gain + Fetus: Decreased weight + Fetus: Increased mortality + Fetus: Increased post-implantation losses) was 3 mg/kg-day and the LEL (Oryctolagus sp. [5]; [20]) was 10 mg/kg-day. For the same compound, the NOEL (Oryctolagus sp. [5]; [20]) was 3 mg/kg-day.
Compound `O=[As][O-].[Na+]` [Sodium arsenite] has an LOAEL (Anas platyrhynchos) of 12.8 mg/kg-day and an NOAEL (Anas platyrhynchos) of 5.14 mg/kg-day.
Compound `C=CCCl` [Allyl chloride] has an NOAEL (Oryctolagus sp. [4]; chronic, duration: 5 months, inhalation, intermittent, Nervous system: Neurotoxicity) of 17 mg/m3, an LOAEL (Oryctolagus sp. [5]; [21]) of 206 mg/m3 and an NOAEL (Oryctolagus sp. [5]; [21]) of 17 mg/m3.
`CN(C)[C@@H]1C(=O)C(C(N)=O)=C(O)[C@@]2(O)C(=O)C3=C(O)c4c(O)cccc4[C@@](C)(O)[C@H]3C[C@@H]12` [Tetracycline] was tested, and the NOEL (Homo sapiens [6]; Selection of resistant bacterial strains) was 0.033 mg/kg-day.
`COP(=O)(OC)C(O)C(Cl)(Cl)Cl` (stereo not drawn) [Trichlorfon] was tested, and the LOEL (Homo sapiens [6]; duration: 10 weeks, Inhibition of acetylcholinesterase activity) was 0.2 mg/kg-day.
Compound `CN(C)C=O` [N,N-Dimethylformamide] has an NOAEL (Mus musculus [7]; chronic, duration: 119 days, diet, CD1, hepatic) of 96 mg/kg-day.
`Cc1ccc(O)c(C)c1` [2,4-Dimethylphenol] was tested, and the LC50 (Rattus norvegicus [3]; oral) was 2300 mg/kg, the LC50 (Mus musculus [8]; acute) was 809 mg/kg and the NOAEL (Mus musculus [8]; subchronic, duration: 90 days, gavage, F) was 50 mg/kg-day. The LOAEL (Mus musculus [9]; [22]) was 250 mg/kg-day, the NOAEL (Mus musculus [9]; [22]) was 50 mg/kg-day and the NOAEL (Mus musculus [7]; subchronic, duration: 90 days, gavage, Crl:CD-1(ICR)BR-VAF+, Whole Body Effects) was 50 mg/kg-day.
`c1ccc2c(c1)-c1cccc3cccc-2c13` [Fluoranthene] showed an LOAEL (Mus musculus [10]; subchronic, duration: 90 days, CD1, hepatic) of 125 mg/kg-day, an LOAEL (Mus musculus [9]; [23]) of 250 mg/kg-day and an NOAEL (Mus musculus [9]; [23]) of 125 mg/kg-day. It also gave an LEL (Rattus norvegicus [11]) of 10 mg/kg-day.
In the case of `[Ba+2].[OH-].[OH-]` [Barium hydroxide], the LOAEL (Rattus norvegicus [12]) is reported as 19.8 mg/kg-day, the LOAEL (Gallus sp.) is reported as 41.7 mg/kg-day and the NOAEL (Gallus sp.) is reported as 20.8 mg/kg-day.
`NC1CCCCC1N` (stereo not drawn) [1,2-Cyclohexanediamine] gave an LD50 (Rattus norvegicus [3]; oral, gavage, Sprague-Dawley) of 1100 mg, an LOAEL (Rattus norvegicus [3]; [24]) of 250 mg/kg-day and an NOAEL (Rattus norvegicus [3]; [24]) of 100 mg/kg-day. For the same compound, the NOAEL (Rattus norvegicus [3]; subchronic, duration: 13 weeks, oral, gavage, Crj:CD) was 125 mg/kg-day and the LD0 (Oryctolagus sp. [13]; dermal, New Zealand) was 7500 mg/kg.
With `S=c1[nH]c2ccccc2s1` [2-Mercaptobenzothiazole] the LD50 (Oryctolagus sp. [2]) was > 7940 mg/kg, the LD50 (Oryctolagus sp. [2]; New Zealand) was > 7940 mg/kg and the NOAEL (Oryctolagus sp. [2]; developmental, gavage, New Zealand) was 300 mg/kg-day. The NOAEL (Oryctolagus sp. [2]; reproduction developmental, gavage, F, New Zealand) was 300 mg/kg-day and < 150 mg/kg-day, the LC50 (Rattus norvegicus [3]; inhalation) was > 1.27 µg/mL and the LD50 (Rattus norvegicus [3]; oral, Sprague-Dawley) was 2830 mg/kg and 3800 mg/kg. The NOAEL (Rattus norvegicus [3]; developmental, duration: 10 days, oral, gavage, Sprague-Dawley) was 1800 mg/kg-day and 2200 mg/kg-day, the NOAEL (Rattus norvegicus [3]; reproduction developmental, duration: 10 days, oral, gavage, F, Sprague-Dawley) was 300 mg/kg-day and the NOAEL (Rattus norvegicus [3]; reproduction developmental, oral, diet, Crl:CD COBS BR) was 2500 ppm. The NOAEL (Rattus norvegicus [3]; reproduction developmental, oral, diet, Sprague-Dawley, generation: F0) was < 5000 ppm, the NOAEL (Rattus norvegicus [3]; reproduction developmental, oral, diet, Sprague-Dawley, generation: F1) was < 5000 ppm and the LOAEL (Rattus norvegicus [3]; [25]) was 1070 mg/kg-day. It also gave an NOAEL (Rattus norvegicus [3]; [25]) of 714 mg/kg-day, an NOAEL (Rattus norvegicus [3]; subchronic, duration: 13 weeks, oral, gavage, Fischer 344) of 375 mg/kg-day and an LD50 (Mus musculus [8]; acute) of 2000 mg/kg. For the same compound, the NOEL (Rattus norvegicus [14]; duration: 13 weeks, M/F, Fischer 344, Absolute Organ Weight: Liver increase + Relative Organ Weight: Liver increase) was < 188 mg/kg-day, the NOEL (Rattus norvegicus [14]; M, Sprague-Dawley, Clinical Observation: Locomotor activity with ptosis decrease, Salivation + Body Weight Changes: Suppression of body weight gain(tendency…) was < 40 mg/kg-day and the LD0 (Oryctolagus sp. [13]; oral) was ≥ 7500 mg/kg and ≤ 8750 mg/kg. For the same compound, the LD0 (Oryctolagus sp. [13]; oral, New Zealand) was ≥ 7500 mg/kg and ≤ 8750 mg/kg.
`ClC1=C(Cl)C2(Cl)C3C(Cl)C(Cl)CC3C1(Cl)C2(Cl)Cl` (stereo not drawn) [Technical chlordane] was tested, and the NOAEL (Rattus norvegicus [15]) was 0.1 mg/m3, the LOAEL (Mus musculus [10]; developmental, duration: 7 days, albino, developmental) was 1 mg/kg-day and the NOAEL (Rattus norvegicus [16]) was 1 mg/m3. For the same compound, the LOAEL (Mus musculus [9]; [26]) was 0.75 mg/kg-day, the NOAEL (Mus musculus [9]; [26]) was 0.15 mg/kg-day and the LOAEL (Mus musculus [17]) was 9.2 mg/kg-day. For the same compound, the NOAEL (Mus musculus [17]) was 4.6 mg/kg-day, the LOAEL (Chrysomus sp.) was 10.7 mg/kg-day and the NOAEL (Chrysomus sp.) was 2.14 mg/kg-day.
With `[Cu+].[Cu+].[O-2]` [Cuprous oxide] the LOAEL (Gallus sp.) was 61.7 mg/kg-day and the NOAEL (Gallus sp.) was 47 mg/kg-day.
In the case of `ClC=CCCl` [1,3-Dichloropropene], the NOEL (Rattus norvegicus [18]) is reported as 3 mg/kg-day and the NOAEL (Mus musculus [19]) is reported as 22.7 mg/m3.
`CC(CCc1ccc(O)cc1)NCC(O)c1ccc(O)cc1.Cl` (stereo not drawn) [Ractopamine hydrochloride] showed an NOEL (Homo sapiens [6]; M, Changes in cardiovascular function variables) of 0.067 mg/kg-day.
